Values of other authors in US20020150615A1, “Injectable pharmaceutical composition comprising microdroplets of a camptothecin” (priority 2001, published 2002).

Tests used:
[1] = human whole blood
[2] = target: human serum albumin (HSA) (Homo sapiens, UniProt P02768); conditions: PBS at pH 7.4
Sequence of human serum albumin (HSA) (P02768 25-609): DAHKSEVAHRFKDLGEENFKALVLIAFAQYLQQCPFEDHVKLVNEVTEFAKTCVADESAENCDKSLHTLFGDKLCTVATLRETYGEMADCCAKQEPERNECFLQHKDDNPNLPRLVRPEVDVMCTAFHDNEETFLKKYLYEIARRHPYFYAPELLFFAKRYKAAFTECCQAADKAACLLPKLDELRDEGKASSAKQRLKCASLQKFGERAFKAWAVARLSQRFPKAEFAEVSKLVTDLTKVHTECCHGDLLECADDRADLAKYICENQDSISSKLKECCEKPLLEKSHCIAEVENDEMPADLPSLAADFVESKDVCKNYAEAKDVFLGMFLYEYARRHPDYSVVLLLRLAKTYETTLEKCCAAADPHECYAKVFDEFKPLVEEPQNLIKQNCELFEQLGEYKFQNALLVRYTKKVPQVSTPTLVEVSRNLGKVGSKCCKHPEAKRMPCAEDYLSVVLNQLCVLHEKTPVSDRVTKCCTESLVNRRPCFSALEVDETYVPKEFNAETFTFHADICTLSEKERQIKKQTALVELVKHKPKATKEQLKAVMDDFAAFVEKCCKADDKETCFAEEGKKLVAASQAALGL

Structure (SMILES): CC[C@@]1(O)C(=O)OCc2c1cc1n(c2=O)Cc2cc3ccccc3nc2-1 [camptothecin, 20(S)-camptothecin]
- half-life of lactone ring opening [1]: 22 min
- affinity of the carboxylate form relative to the α-hydroxy lactone form [2]: 150 fold
